Patent publication US20250305055A1, “PROGNOSTIC/PREDICTIVE BREAST CANCER SIGNATURE” (priority 2021, published 2025)

System: breast cancer cell lines BT20, MDA-MB-231 and SUM-i 159
Experiment: Drug response: breast cancer cell line proliferation inhibition
Assay type: cell-based
Settings: same dose as in the triple-drug combinations, BT20, MDA-MB-231, SUM-i 159, FIG. 9
Procedure: The breast cancer cell lines BT20, MDA-MB-231 and SUM-i 159 were treated with HDAC inhibitor (MS275), ISP inhibitor (17-AAG), mTOR inhibitor (Niclosamide), polo-like kinase inhibitor (1312536) and histone demethylase inhibitor (GSK-J4).

Row | SMILES | inhibition of breast cancer cell line proliferation, single treatment
1 | CCOC(=O)CCNc1cc(N2CCc3ccccc3CC2)nc(-c2ccccn2)n1 [GSK-J4] | ineffective
2 | Nc1ccccc1NC(=O)c1ccc(CNC(=O)OCc2cccnc2)cc1 [MS275, Entinostat] | ineffective
3 | CC[C@@H]1C(=O)N(C)c2cnc(Nc3ccc(C(=O)NC4CCN(C)CC4)cc3OC)nc2N1C1CCCC1 [compound 1312536] | ineffective
4 | O=C(Nc1ccc([N+](=O)[O-])cc1Cl)c1cc(Cl)ccc1O [Niclosamide] | ineffective
